Values of other authors, collected in patent US20240180165A1, “ACTIVATION OF BIONEMATICIDE AND PLANT GROWTH PROMOTING FUNCTIONS IN A BIOTECHNOLOGICAL SOLUTION COMPRISING TWO OR MORE BACILLUS SPECIES AND ALLICIN; INDUSTRIAL PROCESS AND APPLICATION THEREOF” (TOTAL BIOTECNOLOGIA INDÚSTRIA E COMÉRICO S/A, priority 2021, published 2024).

Tested on: Gram-negative and Gram-positive bacteria, including the Bacillus genus
Details: even at low concentrations (UM)

In the case of `C=CCS[S+]([O-])CC=C` (stereo not shown) [allicin], the antimicrobial activity is listed as “broad antimicrobial activity”.
